Measured values: ChEMBL document CHEMBL1201862, “PubChem BioAssay data set” (2004)
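All cell lines were grown in 96-well plates and treated with compound for 48 hours. GI50 marks 50% less growth.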 The source made the active and inactive calls. Rule as the data show it: active = GI50 up to about 1.1 µM and inactive = higher.

Experiments:
Assay in all cases: NCI anticancer screen, dose series, 48 h
[1] = tested on: MCF7
[2] = tested on: DU-145
[3] = tested on: HOP-92
[4] = tested on: KM12
[5] = tested on: SR
[6] = tested on: M14
[7] = tested on: SK-MEL-2
[8] = tested on: UACC-62
[9] = tested on: OVCAR-4
[10] = tested on: SF-539
[11] = tested on: HCT-116
[12] = tested on: SNB-19
[13] = tested on: OVCAR-3
[14] = tested on: COLO 205
[15] = tested on: 786-0
[16] = tested on: NCI-H226
[17] = tested on: BT-549
[18] = tested on: LOX IMVI
[19] = tested on: NCI-H460
[20] = tested on: RPMI-8226
[21] = tested on: OVCAR-5
[22] = tested on: K562
[23] = tested on: SF-268
[24] = tested on: HL-60
[25] = tested on: PC-3
[26] = tested on: MOLT-4
[27] = tested on: MDA-MB-435
[28] = tested on: NCI-H522
[29] = tested on: T47D
[30] = tested on: ACHN
[31] = tested on: NCI-H23
[32] = tested on: Hs-578T
[33] = tested on: HT-29
[34] = tested on: U-251
[35] = tested on: EKVX
[36] = tested on: IGROV-1
[37] = tested on: TK-10
[38] = tested on: CCRF-CEM
[39] = tested on: A549
[40] = tested on: MDA-N
[41] = tested on: HOP-62
[42] = tested on: OVCAR-8
[43] = tested on: SK-OV-3
[44] = tested on: CAKI-1
[45] = tested on: MDA-MB-231
[46] = tested on: SK-MEL-28
[47] = tested on: UACC-257
[48] = tested on: SNB-75
[49] = tested on: A498
[50] = tested on: SK-MEL-5
[51] = tested on: RXF 393
[52] = tested on: HCT-15
[53] = tested on: SN12C
[54] = tested on: HCC 2998
[55] = tested on: NCI/ADR-RES
[56] = tested on: SW-620
[57] = tested on: UO-31
[58] = tested on: SF-295
[59] = tested on: Malme-3M

COc1ccc([C@H]2C=C(c3cc(F)c(Cl)cc3Cl)NC(=S)N2)cc1
GI50 [1]: 32.6 µM (inactive)
GI50 [2]: 39.9 µM (inactive)
GI50 [3]: 24 µM (inactive)
GI50 [4]: 29.2 µM (inactive)
GI50 [5]: 5.24 µM (inactive)
GI50 [6]: 32.5 µM (inactive)
GI50 [7]: 25.1 µM (inactive)
GI50 [8]: 28.3 µM (inactive)
GI50 [9]: 28.3 µM (inactive)
GI50 [10]: 42.4 µM (inactive)
GI50 [11]: 27 µM (inactive)
GI50 [12]: 61 µM (inactive)
GI50 [13]: 33.7 µM (inactive)
GI50 [14]: 19.1 µM (inactive)
GI50 [15]: 33.6 µM (inactive)
GI50 [16]: 56.1 µM (inactive)
GI50 [17]: 32.7 µM (inactive)
GI50 [18]: 37.3 µM (inactive)
GI50 [19]: 20.1 µM (inactive)
GI50 [20]: 21.7 µM (inactive)
GI50 [21]: 43.1 µM (inactive)
GI50 [22]: 15.2 µM (inactive)
GI50 [23]: 48.5 µM (inactive)
GI50 [24]: 11.3 µM (inactive)
GI50 [25]: 19.9 µM (inactive)
GI50 [26]: 17.7 µM (inactive)
GI50 [27]: 12.8 µM (inactive)
GI50 [28]: 31.8 µM (inactive)
GI50 [29]: 18.7 µM (inactive)
GI50 [30]: 36.9 µM (inactive)
GI50 [31]: 37.5 µM (inactive)
GI50 [32]: 79.1 µM (inactive)
GI50 [33]: 26.2 µM (inactive)
GI50 [34]: 26.7 µM (inactive)
GI50 [35]: 28 µM (inactive)
GI50 [36]: 31.4 µM (inactive)
GI50 [37]: 32.7 µM (inactive)
GI50 [38]: 30.2 µM (inactive)
GI50 [39]: 35.3 µM (inactive)
GI50 [40]: 11.1 µM (inactive)
GI50 [41]: 38.6 µM (inactive)
GI50 [42]: 40.3 µM (inactive)
GI50 [43]: 44.1 µM (inactive)
GI50 [44]: 29.4 µM (inactive)
GI50 [45]: 27.2 µM (inactive)
GI50 [46]: 47 µM (inactive)
GI50 [47]: 24.9 µM (inactive)
GI50 [48]: 18.2 µM (inactive)
GI50 [49]: 28.1 µM (inactive)
GI50 [50]: 11.9 µM (inactive)
GI50 [51]: 18.8 µM (inactive)
GI50 [52]: 28.7 µM
GI50 [53]: 21.3 µM (inactive)
GI50 [54]: 23.9 µM (inactive)
GI50 [55]: 25.7 µM (inactive)
GI50 [56]: 30.9 µM (inactive)
GI50 [57]: 36.6 µM (inactive)
GI50 [58]: 24.3 µM (inactive)
GI50 [59]: 40.6 µM (inactive)

COc1ccc(C(O)/C(=N/N)c2nc3ccc(Cl)cc3nc2O)cc1 (configuration not stated)
GI50 [1]: 62.7 µM (inactive)
GI50 [2]: > 100 µM (inactive)
GI50 [3]: 63.4 µM (inactive)
GI50 [4]: > 100 µM (inactive)
GI50 [5]: > 100 µM (inactive)
GI50 [6]: > 100 µM (inactive)
GI50 [7]: > 100 µM (inactive)
GI50 [8]: > 100 µM (inactive)
GI50 [9]: > 100 µM (inactive)
GI50 [10]: > 100 µM (inactive)
GI50 [11]: > 100 µM (inactive)
GI50 [12]: > 100 µM (inactive)
GI50 [13]: > 100 µM (inactive)
GI50 [14]: > 100 µM (inactive)
GI50 [15]: > 100 µM (inactive)
GI50 [16]: > 100 µM (inactive)
GI50 [17]: > 100 µM (inactive)
GI50 [18]: > 100 µM (inactive)
GI50 [19]: > 100 µM (inactive)
GI50 [20]: 97.7 µM (inactive)
GI50 [21]: > 100 µM (inactive)
GI50 [22]: > 100 µM (inactive)
GI50 [23]: > 100 µM (inactive)
GI50 [24]: > 100 µM (inactive)
GI50 [25]: > 100 µM (inactive)
GI50 [26]: > 100 µM (inactive)
GI50 [27]: > 100 µM (inactive)
GI50 [28]: > 100 µM (inactive)
GI50 [29]: 99.8 µM (inactive)
GI50 [30]: > 100 µM (inactive)
GI50 [31]: > 100 µM (inactive)
GI50 [32]: > 100 µM (inactive)
GI50 [33]: > 100 µM (inactive)
GI50 [34]: > 100 µM (inactive)
GI50 [35]: > 100 µM (inactive)
GI50 [36]: > 100 µM (inactive)
GI50 [37]: > 100 µM (inactive)
GI50 [38]: > 100 µM (inactive)
GI50 [39]: > 100 µM (inactive)
GI50 [40]: > 100 µM (inactive)
GI50 [41]: > 100 µM (inactive)
GI50 [42]: > 100 µM (inactive)
GI50 [43]: > 100 µM (inactive)
GI50 [44]: > 100 µM (inactive)
GI50 [45]: > 100 µM (inactive)
GI50 [46]: > 100 µM (inactive)
GI50 [47]: > 100 µM (inactive)
GI50 [48]: > 100 µM (inactive)
GI50 [49]: > 100 µM (inactive)
GI50 [50]: > 100 µM (inactive)
GI50 [51]: > 100 µM (inactive)
GI50 [52]: > 100 µM
GI50 [53]: > 100 µM (inactive)
GI50 [54]: > 100 µM (inactive)
GI50 [55]: > 100 µM (inactive)
GI50 [56]: > 100 µM (inactive)
GI50 [57]: > 100 µM (inactive)
GI50 [58]: > 100 µM (inactive)
GI50 [59]: > 100 µM (inactive)

O=C1C[C@H](COCc2ccccc2)NC(=O)C[C@H](COCc2ccccc2)NC(=O)C[C@H](COCc2ccccc2)N1
GI50 [1]: > 100 µM (inactive)
GI50 [2]: > 100 µM (inactive)
GI50 [3]: 12.2 µM (inactive)
GI50 [4]: > 100 µM (inactive)
GI50 [5]: 42.4 µM (inactive)
GI50 [6]: > 100 µM (inactive)
GI50 [7]: 28.2 µM (inactive)
GI50 [8]: > 100 µM (inactive)
GI50 [9]: > 100 µM (inactive)
GI50 [10]: 15.3 µM (inactive)
GI50 [11]: 32.4 µM (inactive)
GI50 [12]: 18.6 µM (inactive)
GI50 [13]: 80.5 µM (inactive)
GI50 [14]: > 100 µM (inactive)
GI50 [15]: 16.9 µM (inactive)
GI50 [16]: > 100 µM (inactive)
GI50 [17]: 41.6 µM (inactive)
GI50 [18]: > 100 µM (inactive)
GI50 [19]: > 100 µM (inactive)
GI50 [20]: > 100 µM (inactive)
GI50 [21]: > 100 µM (inactive)
GI50 [22]: 3.52 µM (inactive)
GI50 [23]: 40.9 µM (inactive)
GI50 [24]: 92.7 µM (inactive)
GI50 [25]: > 100 µM (inactive)
GI50 [26]: 5.9 µM (inactive)
GI50 [27]: > 100 µM (inactive)
GI50 [28]: > 100 µM (inactive)
GI50 [29]: 62.2 µM (inactive)
GI50 [30]: 16.4 µM (inactive)
GI50 [31]: 55.3 µM (inactive)
GI50 [32]: 39.9 µM (inactive)
GI50 [33]: > 100 µM (inactive)
GI50 [34]: 12.6 µM (inactive)
GI50 [35]: > 100 µM (inactive)
GI50 [36]: > 100 µM (inactive)
GI50 [37]: 18.1 µM (inactive)
GI50 [38]: > 100 µM (inactive)
GI50 [39]: > 100 µM (inactive)
GI50 [40]: > 100 µM (inactive)
GI50 [41]: 17.9 µM (inactive)
GI50 [42]: > 100 µM (inactive)
GI50 [43]: 19.5 µM (inactive)
GI50 [44]: > 100 µM (inactive)
GI50 [45]: 26.7 µM (inactive)
GI50 [46]: > 100 µM (inactive)
GI50 [47]: > 100 µM (inactive)
GI50 [48]: 2.55 µM (inactive)
GI50 [49]: 12 µM (inactive)
GI50 [50]: > 100 µM (inactive)
GI50 [51]: 11.5 µM (inactive)
GI50 [52]: > 100 µM
GI50 [53]: > 100 µM (inactive)
GI50 [54]: > 100 µM (inactive)
GI50 [55]: > 100 µM (inactive)
GI50 [56]: > 100 µM (inactive)
GI50 [57]: > 100 µM (inactive)
GI50 [58]: 19.2 µM (inactive)
GI50 [59]: > 100 µM (inactive)
